Experimental findings from US6660246B1, “Ligands and metal complexes thereof” (Bracco International, BV, priority 1994, dated 2003) are described below.

Counter-ions that a name gives are not always drawn.

What is called melting point is the temperature of the solid-liquid transition.

In the case of `C/C(=N\N)C(C)(C)NCCCNC(C)(C)/C(C)=N/O` [Example 1, 3,3,9,9-Tetramethyl-4,8-diazaundecane-2,10-dione 2-Hydrazone 10-Oxime], the melting point lay in the range of 125 to 126 °C. The same measure for `C/C(=N\O)C(C)(C)NCCCNC(C)(C)/C(C)=N/NC(=O)c1ccccc1` (as salt: trifluoroacetate) [Example 4, 3,3,9,9-Tetramethyl-4,8-diazaundecane-2,10-dione 2-(2-Benzoylhydrazone) 10-Oxime]: 95 to 96 °C. The same measure for `CN/N=C(\C)C(C)(C)NCCCNC(C)(C)/C(C)=N/O` (as salt: hydrochloride) [Example 2, 3,3,9,9-Tetramethyl-4,8-diazaundecane-2,10-dione 2-(2-Methylhydrazone) 10-Oxime]: 175 to 177 °C; for `C/C(=N\O)C(C)(C)NCCCNC(C)(C)/C(C)=N/Nc1ccccc1` [Example 3, 3,3,9,9-Tetramethyl-4,8-diazaundecane-2,10-dione 2-(2-Phenyl-hydrazone) 10-Oxime]: 145 to 146 °C. In turn, `C/C(=N\N)C(C)(C)NCCCNC(C)(C)/C(C)=N/N` [Example 5, 3,3,9,9-Tetramethyl-4,8-diazaundecane-2,10-dione Bishydrazone] yielded a melting point of 95 to 96 °C. The same measure for `C/C(=N\O)C(C)(C)NCCNC(C)(C)/C(C)=N/Nc1ccccc1` [Example 6, 3,3,8,8-Tetramethyl-4,8-diazadecane-2,9-dione 2-(2-Phenylhydrazone) 9-Oxime]: 95 to 97 °C.
